{"source": "paper PMC8004929", "about": "“Whole-Body Pharmacokinetics and Physiologically Based Pharmacokinetic Model for Monomethyl Auristatin E (MMAE)” (Journal of Clinical Medicine, 2021)", "key": {"[1]": {"assay": "PBPK model fitting and parameter estimation for MMAE", "settings": "PBPK model estimate (CV%), mice, 0.1 mg/kg i.v.", "from_the_text": "The PBPK model included 16 tissues and a tumor compartment, and all of them were connected via blood flow and arranged anatomically. The tissue compartments included blood, lung, heart, kidney, muscle, skin, liver, brain, adipose, thymus, bone, small intestine, large intestine, spleen, pancreas, and other (i.e., carcass). All the other tissues, except those mentioned, were lumped into the ‘other’ compartment. The arterial blood to each organ was delivered by the efferent blood supplied from the lung, which perfused to each organ and then converged into the blood compartment, which represents the venous pool. Venous blood returned from the small intestine, large intestine, spleen, and pancreas were delivered to the liver. For the intestines, spleen, and pancreas, blood was delivered to the liver via the hepatic portal vein and mixed with liver artery blood after leaving the tissues. The delivery of the blood from the blood compartment to the lung completed the circulation of the flow. Based on in vitro, preclinical, and clinical data, the elimination of MMAE was assumed to be predominantly through the CYP3A4/5-mediated metabolic pathway and biliary/fecal excretion. Limited renal excretion (<10%) of MMAE has been reported. Therefore, we assumed that MMAE was eliminated solely via hepatic clearance (CL) from the liver interstitial space.\nEach tissue compartment was further divided into the vascular, endothelial cell, interstitial, and cellular sub-compartments, and vascular space was divided into plasma and blood cells, as shown in Figure 1b. We aimed to make the sub-compartment division the same as our previously published platform antibody PBPK model, and thus, one can easily connect MMAE and an antibody PBPK model to build an ADC PBPK model. The rapid distribution of MMAE between plasma, endothelial cells, and interstitial space was assumed, and thus, the distribution rate between these compartments was set as a value 1000 times higher than the value of blood flow in each tissue. […] The partitioning of MMAE to the blood cells or cellular space was characterized using the KP values. The calculated KP values were adjusted for the ratios of cellular space volume to total tissue volume by dividing KP values with the ratio in each tissue. […] Only free MMAE was assumed to diffuse through the cellular membrane, and thus, the fraction of unbound drug in blood cells or tissue cellular space ( fu,t ) was calculated using Equation (2). (2) fu,t=fu,p/KP,i,\nEquations (3) and (4) describe blood cell and plasma concentrations of MMAE, respectively. Equations that described MMAE concentration in the liver (Equations (5)–(9)), lung (Equations (10)–(14)), a typical tissue (Equations (15)–(19)), and tumor (Equations (20)–(23)) are provided below. In these equations, Qplasmai and QBClung are plasma flow and blood cell flow to the tissue i. Vplasma and VBC are volumes of central plasma and blood cell compartments. Vplasmai , VBCi , Vendoi , VISi , and Vcellulari are volumes of vascular, blood cell, endosomal, interstitial, and cellular compartments for tissue i. Cplasma and CBC are MMAE concentration in systemic plasma and blood cell compartments. Cplasmai , CBCi , Cendoi , CISi , and Ccellulari are MMAE concentration in vascular, blood cell, endosomal, interstitial, and cellular compartments of tissue i. PSBC is the permeability coefficient for the blood cell sub-compartment.\nPhysiological parameters for mice were obtained from our previously published PBPK model. Radius of the tumor blood capillary ( Rcap ), average distance between two capillaries ( Rkrough ), tumor void volume for MMAE ( ε ), P, D, and efflux rate of MMAE from the cells ( kout ) were obtained from the literature. […]"}, "tumor cells [2]": {"tested_on": "tumor cells", "assay": "Cell-level tumor disposition model parameters", "set-up": "species or system mice", "settings": "Estimated by PBPK model", "from_the_text": "Characterization and prediction of MMAE concentration at the site of action (i.e., tumor) is essential to establish a reliable exposure–efficacy relationship. Therefore, a cell-level tumor disposition model was incorporated in the MMAE PBPK model. […] Both pathways also depended on the vascular density and tumor size (Equation (20)). MMAE in the tumor extracellular space can influx into the tumor cell and bind to the tubulin. The tubulin-bound MMAE can dissociate from the target and efflux from tumor intracellular space into the extracellular space.\nPhysiological parameters for mice were obtained from our previously published PBPK model. Radius of the tumor blood capillary ( Rcap ), average distance between two capillaries ( Rkrough ), tumor void volume for MMAE ( ε ), P, D, and efflux rate of MMAE from the cells ( kout ) were obtained from the literature. […] The estimated parameters included (1) permeability coefficient ( PSi) in all tissues except the intestines, thymus, and other compartments for which observed data were not available, (2) intrinsic hepatic clearance ( CLint ), and (3) nonspecific uptake rate of MMAE into cancer cells ( kin) . The model was fitted to the data using the maximum likelihood estimation method in ADAPT version 5 (Biomedical Simulations Resource, University of Southern California, Los Angeles, CA, USA), using the variance model shown in Equation (23). […]"}, "[3]": {"assay": "Derivation of in vivo CLint (in vitro-in vivo extrapolation; NCA with well-stirred model)", "settings": "mice, 0.1 mg/kg i.v."}, "tumor cells [4]": {"tested_on": "tumor cells", "settings": "cited from earlier work", "from_the_text": "Table 1 A glossary of literature-derived and estimated parameters used for the MMAE PBPK model. | column: Value"}, "[5]": {"settings": "cited from earlier work", "from_the_text": "The PK profile of MMAE in plasma dropped rapidly, while concentrations in tissues were retained for a prolonged period of time. This could be because of the binding of MMAE to its intracellular target, tubulin. […] Since plasma and tissue concentration profiles were not parallel, plasma exposure ..."}, "[6]": {"settings": "following free MMAE administration; cited from earlier work", "from_the_text": "Our results regarding the blood cell distribution of MMAE were not consistent with the literature. The MMAE blood-to-plasma ratio is reported to be 2 [4] and 1.53–8.65 [8] in different studies, following free MMAE administration. Whereas, a lower blood-to-plasma ratio has been observed when MMAE-conjugated ADCs were administrated."}}, "note": "Square brackets hold non-standard residues; d marks the D form. Peptide text beside a SMILES is read from it. * marks the point of attachment. Dolaproine = CO[C@@H]([C@@H]1CCCN1)[C@@H](C)C(=O)O; Dil = CC[C@H](C)[C@H](NC)[C@@H](CC(=O)O)OC; X1 = C[C@@H](N*)[C@@H](O)c1ccccc1; NMeV = CN[C@H](C(=O)O)C(C)C", "data": [{"smiles": "CC[C@H](C)[C@@H]([C@@H](CC(=O)N1CCC[C@H]1[C@H](OC)[C@@H](C)C(=O)N[C@H](C)[C@@H](O)c1ccccc1)OC)N(C)C(=O)[C@@H](NC(=O)[C@@H](NC)C(C)C)C(C)C", "note": "[MMAE, Monomethyl auristatin E] (H-[NMeV]V[Dil][Dolaproine]-X1)", "values": [{"measurement": "CLint (liver intrinsic clearance)", "setting": "[1]", "result": "137 (8.92) mL/h"}, {"measurement": "PSblood (permeability-surface area coefficient)", "setting": "[1]; blood cells", "result": "0.105 (12.6) mL/h"}, {"measurement": "PSbone (permeability-surface area coefficient)", "setting": "[1]; bone", "result": "0.568 (20.9) mL/h"}, {"measurement": "PSbrain (permeability-surface area coefficient)", "setting": "[1]; brain", "result": "0.00825 (40.4) mL/h"}, {"measurement": "PSfat (permeability-surface area coefficient)", "setting": "[1]; fat", "result": "0.588 (23.5) mL/h"}, {"measurement": "PSheart (permeability-surface area coefficient)", "setting": "[1]; heart", "result": "1.47 (17.1) mL/h"}, {"measurement": "PSkidney (permeability-surface area coefficient)", "setting": "[1]; kidney", "result": "14.2 (20.2) mL/h"}, {"measurement": "PSliver (permeability-surface area coefficient)", "setting": "[1]; liver", "result": "49.2 (48.4) mL/h"}, {"measurement": "PSlung (permeability-surface area coefficient)", "setting": "[1]; lung", "result": "2.47 (13.2) mL/h"}, {"measurement": "PSmuscle (permeability-surface area coefficient)", "setting": "[1]; muscle", "result": "3.16 (21.1) mL/h"}, {"measurement": "PSpancreas (permeability-surface area coefficient)", "setting": "[1]; pancreas", "result": "0.0657 (18.7) mL/h"}, {"measurement": "PSskin (permeability-surface area coefficient)", "setting": "[1]; skin", "result": "0.681 (30.6) mL/h"}, {"measurement": "PSspleen (permeability-surface area coefficient)", "setting": "[1]; spleen", "result": "0.457 (18.5) mL/h"}, {"measurement": "kin, first-order influx rate of MMAE from extracellular to intracellular space", "setting": "tumor cells [2]", "result": 0.185, "unit": "h⁻¹"}, {"measurement": "CLint derived from NCA analysis of in vivo PK data", "setting": "[3]", "result": 150, "unit": "mL/h"}, {"measurement": "kout, first-order efflux rate of MMAE from intracellular to extracellular space", "setting": "tumor cells [4]", "result": 0.046, "unit": "h⁻¹"}, {"measurement": "ε, tumor void volume for MMAE", "setting": "tumor cells [4]", "result": 0.44}, {"measurement": "D, diffusion rate across the blood vessels", "setting": "tumor cells [4]; tumor", "result": 0.0104, "unit": "cm^2/h"}, {"measurement": "half-life of MMAE, reported value", "setting": "[5]", "result": 5.7, "unit": "h"}, {"measurement": "blood-to-plasma ratio", "setting": "[6]", "result": 2}]}]}
